Results as given in patent US8420658B2, “Use of Carboxyamidotriazole (CAI) orotate in macular degeneration” (Tactical Therapeutics Inc, priority 2006, dated 2013).

Legend:
[1] = system: Human umbilical vein endothelial cells (HUVEC); experiment: Proliferation assay for endothelial cells (HUVEC), cell count after 3 days of treatment; type: cell-based; conditions: HUVEC treated with three different concentrations for 3 days; triplicate; FIG. 1
Protocol: FIG. 1 illustrates the results of the proliferation assay for endothelial cells (HUVEC).
Human umbilical vein endothelial cells (HUVEC) were treated with three different concentrations of Carboxyamidotriazole or 5 amino 1,2,3-triazole orotate (CAI Orotate) for 3 days. The cell number of each culture under different treatment conditions was counted. The assays were done in triplicate and the data are expressed as mean +/− standard deviation.

[2] = system: Dunning rat model for prostate cancer; conditions: orotate salt of CAI compared with CAI; from U.S. Pat. Nos. 5,861,406 and 5,912,346; cited from earlier work

## NC(=O)c1nnn(Cc2cc(Cl)c(C(=O)c3ccc(Cl)cc3)c(Cl)c2)c1N.O=C(O)c1cc(=O)[nH]c(=O)[nH]1 [CAI Orotate, Carboxyamidotriazole or 5 amino 1,2,3-triazole orotate]
[1]
  Inhibition of angiogenesis (HUVEC cell number): inhibited angiogenesis in a dose related manner
[2]
  Antitumor effect compared with CAI: improved antitumor effect
